How the values were obtained:
mice [1] = test: Acute hypobaric hypoxia: height ceiling for mice (Hmax); type: in vivo, mice (male, tetrahybrids)
Description: (§1) The antihypoxic effect of the compound according to the present invention was studied in comparison with pyracetam on various experimental models of hypoxic states in experiments on mice and rats. The compound according to the present invention and pyracetam were administered intraperitoneally in the form of an aqueous emulsion prepared with Tween-80.
The studies were carried out on a model of an acute hypobaric hypoxia.
An acute […] hypoxia was modelled in a flow-type barometric chamber at an ambient temperature of 17°-20° C. with absorption of carbon dioxide and water.
The test animals (male mice, tetrahybrids) with a mass of 15-22 g of the same generation were "lifted" (under simulation conditions) at the mean speed of 50 m/sec to the height of 11,000 m at which the lifespan (in minutes) for the same series of experiments was evaluated. Furthermore, the mice were discretely lifted at the same speed to the height of 10,000 m where they stayed for 1 minute and then to the height of 11,000 m, where they again were kept for 1 minute and so on, till their death for the determination of the height "ceiling", The animals' death was adjudicated by the occurrence of an agonal breathing against the background of convulsions. The total number of mice employed in the experiments was 200.
As the comparison preparation pracetam was used. The compound according to the present invention and pyracetam were administered one hour before the "lift".

mice [2] = test: Acute normobaric hypoxia: lifespan of mice; type: in vivo
Description: as §1
(§2) Investigations were also carried out with a model of an acute normobaric hypoxia.
(§3) An acute normobaric hypoxia was simulated in a flow-type barometric chamber at an ambient temperature of 17°-22° C. with absorption of carbon dioxide and water. A gas mixture ([…] and 3% of O2) was admitted into the barometric chamber at the rate of 10 1/min. The lifespan of test animals (mice, rats) in the chambers was recorded since the moment of the mixture admission into the chamber till the moment of perdition of the animals which was adjudicated by an agonal breathing against the background of convulsions. The modes of administration of the preparations, species of animals and analysis of the results of the experiments are similar to those described hereinbefore for the case of an acute hypobaric hypoxia. The experiments were carried out using 50 mice and 20 rats.

rats [3] = test: Acute normobaric hypoxia: lifespan of rats; type: in vivo
Description: as §1, §2, §3

mice [4] = test: Acute histotoxic hypoxia (sodium nitroprusside): lifespan of mice; type: in vivo
Description: as §1
The studies were carried out using a model of an acute histotoxic hypoxia.
An acute histotoxic hypoxia was induced by way of a subcutaneous injection of sodium nitroprusside in the dose of 20 mg/kg. This mode of administration results in a 100% death of mice in 15-25 minutes after administration of the preparation. The lifespan of the mice was adjudicated after administration of sodium nitroprusside against the background of the test compounds (the compound according to the present invention and pyracetam) which was recorded by the arrest of breathing and heart. In this series of experiments 40 animals altogether were used.

rats [5] = test: Learning speed and performing of electrodefensive conditioned reflex of avoidance; type: in vivo, rats (nondescript male)
Description: (§4) The study of the compound according to the present invention for the speed of learning and performing the produced conditioned reflux was effected in experiments on rats using the method of electrodefensive conditioned reflexes of avoidance.
The study of the effect on the learning speed and fulfilment of the elaborated conditioned reflex was effected on 40 nondescript male rats with a mass of 150170 g (4 groups of 10 rats in each) by the method of electrodefensive conditioned reflexes. Conditioned reflexes were trained in all rats for ringing used as a conditional irritation signal supported by a non-conditional irritating agent--electric current (40-50 V) supplied to an electrified floor of a conditioned-reflex chamber. As the criterion for the elaboration of the conditioned reflex the rat's jump onto a stand in response to switching-on of a bell during the first 10 seconds after the beginning of the sound was assumed.
All rats, against the background of elaboration of conditioned reflexes, were administered over 3 weeks (5 times a week) with: the first group--the compound according to the present invention in the dose of 250 mg/kg; the second and third group--pyracetam in the doses of 500 and 1,000 mg/kg; and the fourth group--control--isotonic solution of sodium chloride. The administration was effected intraperiotoneally 24 hours before the experiment.

[6] = prior art; cited from earlier work
mice [7] = test: Toxicity and general effect; type: in vivo
Description: The study of toxicity and a general effect of the compound according to the present invention was effected on mice with a mass of 18-20 g upon an intraperitoneal administration of the compound according to the present invention in doses of from 100 to 1.500 mg/kg.

[8] = Solubility and storage stability; type: physicochemical
[9] = Learning speed, performing of conditional reflex and memory consolidation (overall); type: in vivo, rats and mice; conditions: conditional reflex, memory consolidation, versus pyracetam
Description: The compound according to the present invention was also tested for the effect produced thereby on processes of learning and memorizing.
as §4
In experiments on mice the compound according to the present invention was tested for the effects produced thereby on processes of memory consolidation according to the results of investigation of the conditional response of passive avoidance.

NC(=O)CN1CCCC1=O [Pyracetam, 1-carbamidomethylpyrrolidone-2, reference compound]
height ceiling for mice (Hmax) (mice [1]; 250 mg/kg): 10.96 ± 0.91 thous. m | height ceiling for mice (Hmax) (mice [1]; 500 mg/kg): 11.55 ± 0.62 thous. m | lifespan at an acute normobaric hypoxia, mice (mice [2]; mice, 250 mg/kg): 3.73 ± 0.254 min | lifespan at an acute normobaric hypoxia, mice, % (control = 100%) (mice [2]; mice, 250 mg/kg): 87.7 ± 5.97% | lifespan at an acute normobaric hypoxia, mice (mice [2]; mice, 500 mg/kg): 6.08 ± 0.744 min | lifespan at an acute normobaric hypoxia, mice, % (control = 100%) (mice [2]; mice, 500 mg/kg): 143.1 ± 17.5% | lifespan at an acute normobaric hypoxia, rats (rats [3]; 250 mg/kg): inactive | lifespan at an acute normobaric hypoxia, rats (rats [3]; 500 mg/kg): 17.3 ± 5.25 min | lifespan at an acute normobaric hypoxia, rats, % (control = 100%) (rats [3]; 500 mg/kg): 93.0 ± 28.2% | lifespan of mice at an acute histotoxic hypoxia (mice [4]; 1.000 mg/kg (= 1,000)): 20.97 ± 1.31 min | lifespan of mice at an acute histotoxic hypoxia, % (control = 100%) (mice [4]; 1.000 mg/kg (= 1,000)): 107.6 ± 6.7% | lifespan of mice at an acute histotoxic hypoxia (mice [4]; 250 mg/kg): inactive | lifespan of mice at an acute histotoxic hypoxia (mice [4]; 500 mg/kg): 17.98 ± 1.49 min | lifespan of mice at an acute histotoxic hypoxia, % (control = 100%) (mice [4]; 500 mg/kg): 92.2 ± 7.62% | effect on elaboration and fixation of a conditioned reflex (rats [5]; 1.000 mg/kg): effect similar to that produced by the compound according to the present inventuion in the dose of 250 mg/kg | latent period of the conditioned reflex of avoidance (rats [5]; 1.000 mg/kg): 0.98 ± 0.29 s | effect on elaboration and fixation of a conditioned reflex (rats [5]; 500 mg/kg): inactive | stimulative effect on the mechanisms of memory consolidation and performance of conditioned reflexes [6]: absence of a pronounced stimulative effect

NC(=S)CN1CCCC1=S [Compound of the present invention, 1-thiocarbamylmethylpyrrolidine-2-thione]
height ceiling for mice (Hmax) (mice [1]; 250 mg/kg): 14.0 ± 0.707 thous. m | elevation of the height ceiling as compared to the control and pyracetam (mice [1]; 500 mg/kg): 4,000 m | height ceiling for mice (Hmax) (mice [1]; 500 mg/kg): 15.57 ± 0.85 thous. m | increase of resistance of mice to acute normobaric hypoxia as compared to the control (mice [2]; mice, 250 mg/kg): 4.5 times | lifespan at an acute normobaric hypoxia, mice (mice [2]; mice, 250 mg/kg): 22.21 ± 3.23 min | lifespan at an acute normobaric hypoxia, mice, % (control = 100%) (mice [2]; mice, 250 mg/kg): 469.5 ± 68.3% | superiority to pyracetam in effectiveness, mice (mice [2]; mice, versus pyracetam at 500 mg/kg): 3.2 times | superiority to pyracetam in effectiveness (mice [2]; versus pyracetam at 250 mg/kg): 5 times | increase of resistance of rats to acute normobaric hypoxia as compared to the control (rats [3]; 250 mg/kg): 1.5 times | lifespan at an acute normobaric hypoxia, rats (rats [3]; 250 mg/kg): 27.38 ± 7.07 min | lifespan at an acute normobaric hypoxia, rats, % (control = 100%) (rats [3]; 250 mg/kg): 147.2 ± 38.0% | superiority to pyracetam in effectiveness, rats (rats [3]; versus pyracetam at 500 mg/kg): 1.5 times | lifespan of mice at an acute histotoxic hypoxia (mice [4]; 250 mg/kg): 24.2 ± 2.46 min | lifespan of mice at an acute histotoxic hypoxia, % (control = 100%) (mice [4]; 250 mg/kg): 124.1 ± 12.6% | lifespan of mice at an acute histotoxic hypoxia (mice [4]; 500 mg/kg): 32.2 ± 4.95 min | lifespan of mice at an acute histotoxic hypoxia, % (control = 100%) (mice [4]; 500 mg/kg): 165.5 ± 25.4% | superiority to pyracetam in effectiveness (mice [4]; 500 mg/kg versus pyracetam 500 and 1,000 mg/kg): 1.5 times | acceleration of elaboration and fixation of a conditioned reflex (rats [5]; 250 mg/kg): about 2 times | combinations of conditional and non-conditional irritation agents after which the reflex is fixed (rats [5]; 250 mg/kg): 49-65 combinations | lowering of the latent period of the conditioned reflex as compared to the control (rats [5]; 250 mg/kg): more than 2 times | latent period of the conditioned reflex of avoidance (rats [5]; 250 mg/kg, control 2.14±0.71 s): 0.87 ± 0.32 s | effective dose (learning and performing of conditioned response of avoidance in rats) (rats [5]; rats): 250 mg/kg | toxicity classification (mice [7]; based on LD50): low-toxic | dose with which suppression of a general state of the animals starts (mice [7]; mice, intraperitoneal): 250 mg/kg | solubility in N,N-dimethylformamide ([8]; N,N-dimethylformamide): soluble | solubility in ether, hexane ([8]; ether, hexane): insoluble | storage stability ([8]; storage): stable in storage | effective doses smaller than those of pyracetam [9]: 4-5 times
